Broadly, the IC50 is the point on the concentration scale where inhibition reaches its midpoint.

These results are taken from patent US20260265251A1 (priority 2023, published 2026).

For the assay, the system named is SK-MEL-3 cells. Briefly: SK-MEL-3 cell proliferation assay. Conditions: Homo sapiens, read-out: SK-MEL-3 IC50. It is filed as cell-based.
[1] abbreviates: SK-MEL3, SK-MEL-3 cells, 72 hours, CellTiter-Glo.

The structures appear in SMILES notation. Read-outs that look alike come from different tables or passages of the source.

Consider `Cc1ccc(-c2ccc3nc4[nH]c(=O)[nH]c4cc3c2Cl)cc1` [Example 1, 8-chloro-7-(p-tolyl)-1,3-dihydro-2H-imidazo[4,5-b]quinolin-2-one], for which the IC50 under setting [1] was 0.4 nM.
As to `Cc1ccc(-c2ccc3nc4c(cc3c2Cl)CC(=O)N4)cc1` [Example 2, 5-chloro-6-(p-tolyl)-1,3-dihydropyrrolo[2,3-b]quinolin-2-one], under setting [1], the half-inhibitory concentration (IC50) amounted to 37.9 nM.
On the same count and under the same terms, with `Cc1cc(F)ccc1-c1ccc2nc3[nH]c(=O)[nH]c3cc2c1` [Example 4, 7-(4-fluoro-2-methylphenyl)-1,3-dihydro-2H-imidazo[4,5-b]quinolin-2-one] the figure was 1.7 nM; with `O=c1[nH]c2cc3cc(-c4ccc(F)cc4C(F)(F)F)ccc3nc2[nH]1` [Example 5, 7-(4-fluoro-2-(trifluoromethylphenyl))-1,3-dihydro-2H-imidazo[4,5-b]quinolin-2-one], 2.8 nM; with `COc1cc(F)ccc1-c1ccc2nc3[nH]c(=O)[nH]c3cc2c1` [Example 6, 7-(4-fluoro-2-methoxyphenyl)-1,3-dihydro-2H-imidazo[4,5-b]quinolin-2-one], 3.6 nM.
On the same count and under the same terms, for `COc1ccc(-c2ccc3nc4[nH]c(=O)[nH]c4cc3c2)c(Cl)n1` [Example 7, 7-(2-chloro-6-methoxypyridin-3-yl)-1,3-dihydro-2H-imidazo[4,5-b]quinolin-2-one] the value was 0.4 nM; for `COc1cc(Cl)c(-c2ccc3nc4[nH]c(=O)[nH]c4cc3c2)cn1` [Example 8, 7-(4-chloro-6-methoxypyridin-3-yl)-1,3-dihydro-2H-imidazo[4,5-b]quinolin-2-one], 2.1 nM; for `O=c1[nH]c2cc3cc(-c4ccc(F)cc4)ccc3nc2[nH]1` [Example 9, 7-(4-fluorophenyl)-1,3-dihydro-2H-imidazo[4,5-b]quinolin-2-one], 1.7 nM.
Still for that read-out and setting: with `O=c1[nH]c2cc3cc(-c4ncc(F)cc4Cl)ccc3nc2[nH]1` [Example 10, 7-(3-chloro-5-fluoropyridin-2-yl)-1,3-dihydro-2H-imidazo[4,5-b]quinolin-2-one] the figure was 1.8 nM; with `O=c1[nH]c2cc3cc(-c4cnn(C(F)F)c4)ccc3nc2[nH]1` [Example 11, 7-(1-(difluoromethyl)-1H-pyrazol-4-yl)-1,3-dihydro-2H-imidazo[4,5-b]quinolin-2-one], 0.8 nM.
Take `O=c1[nH]c2cc3cc(-c4cn(C(F)F)nc4Cl)ccc3nc2[nH]1` [Example 12, 7-(3-chloro-1-(difluoromethyl)-1H-pyrazol-4-yl)-1,3-dihydro-2H-imidazo[4,5-b]quinolin-2-one]: the half-maximal inhibitory concentration (IC50) under setting [1] was determined as 0.3 nM.
On the same count and under the same terms, with `O=c1[nH]c2cc3cc(-c4c(Cl)cnn4C(F)F)ccc3nc2[nH]1` [Example 16, 7-(4-chloro-1-(difluoromethyl)-1H-pyrazol-5-yl)-1,3-dihydro-2H-imidazo[4,5-b]quinolin-2-one] the figure was 1.6 nM; with `O=c1[nH]c2cc3cc(-c4ccc(Cl)nc4Cl)ccc3nc2[nH]1` [Example 18, 7-(2,6-dichloropyridin-3-yl)-1,3-dihydro-2H-imidazo[4,5-b]quinolin-2-one], 0.6 nM; with `Nc1ccc(-c2ccc3nc4[nH]c(=O)[nH]c4cc3c2)c(Cl)n1` [Example 19, 7-(6-amino-2-chloropyridin-3-yl)-1,3-dihydro-2H-imidazo[4,5-b]quinolin-2-one], 1.7 nM.
On the same count and under the same terms, with `O=c1[nH]c2cc3c(nc2[nH]1)CCN(c1ccccc1)C3` [Example 20, 7-phenyl-1,3,5,6,7,8-hexahydro-2H-imidazo[4,5-b][1,6]naphthyridin-2-one] the figure was 4.5 nM.
Same read-out and setting: with `Cc1ccc(-c2ccc3nc4[nH]c(=O)[nH]c4cc3c2)c(Cl)c1` [Example 25, 7-(2-chloro-4-methylophenyl)-1,3-dihydro-2H-imidazo[4,5-b]quinolin-2-one] the figure was 2.9 nM; with `Nc1cc(-c2ccc3nc4[nH]c(=O)[nH]c4cc3c2)ccn1` [Example 26, 7-(2-aminopyridin-4-yl)-1,3-dihydro-2H-imidazo[4,5-b]quinolin-2-one], 74.6 nM.
In the case of `O=c1[nH]c2cc3cc(-c4cnn(C(F)(F)F)c4)ccc3nc2[nH]1` [Example 29, 7-(1-(trifluoromethyl)-1H-pyrazol-4-yl)-1,3-dihydro-2H-imidazo[4,5-b]quinolin-2-one], the half-maximal inhibitory concentration (IC50) under setting [1] stood at 6.6 nM.
The same measure, in the same setting: with `O=c1[nH]c2cc3cc(-c4cn(C(F)F)nc4C(F)(F)F)ccc3nc2[nH]1` [Example 31, 7-(1-(difluoromethyl)-3-(trifluoromethyl)-1H-pyrazol-4-yl)-1,3-dihydro-2H-imidazo[4,5-b]quinolin-2-one] the figure was 2.5 nM.
Still for that read-out and setting: for `O=c1[nH]c2cc3cc(-c4c(Cl)ncn4C(F)F)ccc3nc2[nH]1` [Example 38, 7-(4-chloro-1-(difluoromethyl)-1H-imidazol-5-yl)-1,3-dihydro-2H-imidazo[4,5-b]quinolin-2-one] the value was 4.7 nM; for `O=c1[nH]c2cc3c(nc2[nH]1)CCN(c1ccc(C(F)F)cc1Cl)C3` [Example 46, 7-(2-chloro-4-(difluoromethyl)phenyl)-1,3,5,6,7,8-hexahydro-2H-imidazo[4,5-b][1,6]naphthyridin-2-one], 1.2 nM.
Regarding `O=c1[nH]c2cc3c(nc2[nH]1)CCN(c1ccc(Cl)cc1Cl)C3` [Example 47, 7-(2,4-dichlorophenyl)-1,3,5,6,7,8-hexahydro-2H-imidazo[4,5-b][1,6]naphthyridin-2-one], under setting [1], the IC50 was found to be 2.7 nM.
As for `O=c1[nH]c2cc3c(nc2[nH]1)CCN(c1cccc(F)c1)C3` [Example 49, 7-(3-fluorophenyl)-1,3,5,6,7,8-hexahydro-2H-imidazo[4,5-b][1,6]naphthyridin-2-one], the IC50 under setting [1] is 1.8 nM.
Still for that read-out and setting: with `O=c1[nH]c2cc3c(nc2[nH]1)CCN(c1cn(C(F)F)nc1Cl)C3` [Example 51, 7-(3-chloro-1-(difluoromethyl)-1H-pyrazol-4-yl)-1,3,5,6,7,8-hexahydro-2H-imidazo[4,5-b][1,6]naphthyridin-2-one] the figure was 74.9 nM; with `N#Cc1ccc(N2CCc3nc4[nH]c(=O)[nH]c4cc3C2)c(F)c1` [Example 52, 7-(2-fluoro-4-cyanophenyl)-1,3,5,6,7,8-hexahydro-2H-imidazo[4,5-b][1,6]naphthyridin-2-one], 4.1 nM.
Turning to `N#Cc1ccc(N2CCc3nc4[nH]c(=O)[nH]c4cc3C2)cc1F` [Example 53, 7-(3-fluoro-4-cyanophenyl)-1,3,5,6,7,8-hexahydro-2H-imidazo[4,5-b][1,6]naphthyridin-2-one], the IC50 (SK-MEL3, 72 h) was 9.6 nM.
`O=c1[nH]c2cc3c(nc2[nH]1)CCN(c1ccc(OC(F)(F)F)cc1Cl)C3` [Example 54, 7-(2-chloro-4-(trifluoromethoxy)phenyl)-1,3,5,6,7,8-hexahydro-2H-imidazo[4,5-b][1,6]naphthyridin-2-one]: the concentration for half-maximal inhibition (IC50) under setting [1] stood at 198 nM.
For the molecule `O=c1[nH]c2cc3c(nc2[nH]1)CCN(c1cccc(OC(F)(F)F)c1)C3` [Example 55, 7-(3-(trifluoromethoxy)phenyl)-1,3,5,6,7,8-hexahydro-2H-imidazo[4,5-b][1,6]naphthyridin-2-one], the IC50 under setting [1] was determined as 15.6 nM.
Still for that read-out and setting: for `N#Cc1cnc(N2CCc3nc4[nH]c(=O)[nH]c4cc3C2)c(Cl)c1` [Example 56, 7-(3-chloro-5-cyanopyridin-2-yl)-1,3,5,6,7,8-hexahydro-2H-imidazo[4,5-b][1,6]naphthyridin-2-one] the value was 10.6 nM; for `O=c1[nH]c2cc3c(nc2[nH]1)CCN(c1cccc(Cl)c1)C3` [Example 59, 7-(3-chlorophenyl)-1,3,5,6,7,8-hexahydro-2H-imidazo[4,5-b][1,6]naphthyridin-2-one], 2.3 nM; for `O=c1[nH]c2cc3c(Cl)c(-c4ccccc4)ccc3nc2[nH]1` [Example 65, 8-chloro-7-phenyl-1,3-dihydro-2H-imidazo[4,5-b]quinolin-2-one], 0.8 nM.
Same read-out and setting: for `O=c1[nH]c2cc3c(Cl)c(-c4ccc(F)cc4)ccc3nc2[nH]1` [Example 66, 8-chloro-7-(4-fluorophenyl)-1,3-dihydro-2H-imidazo[4,5-b]quinolin-2-one] the value was 0.9 nM.
On the same count and under the same terms, with `O=c1[nH]c2cc3c(Cl)c(-c4ccc(C(F)F)cc4)ccc3nc2[nH]1` [Example 67, 8-chloro-7-(4-(difluoromethyl)phenyl)-1,3-dihydro-2H-imidazo[4,5-b]quinolin-2-one] the figure was 0.4 nM.
`Cc1ccc(-c2ccc3nc4[nH]c(=O)[nH]c4cc3c2F)cc1` [Example 68, 8-fluoro-7-(p-tolyl)-1,3-dihydro-2H-imidazo[4,5-b]quinolin-2-one]: the concentration for half-maximal inhibition (IC50) under setting [1] turned out to be 2 nM.
On to `Cc1ccc(-c2cc3cc4[nH]c(=O)[nH]c4nc3cc2Cl)cc1` [Example 69, 6-chloro-7-(p-tolyl)-1,3-dihydro-2H-imidazo[4,5-b]quinolin-2-one], for which, under setting [1], the IC50 came to 9.7 nM.
The same measure, in the same setting: with `Cc1ccc(-c2ccc3nc4[nH]c(=O)[nH]c4cc3c2Cl)nc1` [Example 70, 8-chloro-7-(5-methylpyridin-2-yl)-1,3-dihydro-2H-imidazo[4,5-b]quinolin-2-one] the figure was 2.9 nM; with `O=c1[nH]c2cc3c(Cl)c(-c4ncc(F)cn4)ccc3nc2[nH]1` [Example 71, 8-chloro-7-(5-fluoropyrimidin-2-yl)-1,3-dihydro-2H-imidazo[4,5-b]quinolin-2-one], 8.2 nM; with `COc1ccc(-c2ccc3nc4[nH]c(=O)[nH]c4cc3c2Cl)cn1` [Example 72, 8-chloro-7-(6-methoxypyridin-3-yl)-1,3-dihydro-2H-imidazo[4,5-b]quinolin-2-one], 1 nM.
Same read-out and setting: with `O=c1[nH]c2cc3c(Cl)c(-c4ccc(Cl)nn4)ccc3nc2[nH]1` [Example 73, 8-chloro-7-(6-chloropyridazin-3-yl)-1,3-dihydro-2H-imidazo[4,5-b]quinolin-2-one] the figure was 1.6 nM; with `O=c1[nH]c2cc3c(Cl)c(-c4ccc(C(F)F)cn4)ccc3nc2[nH]1` [Example 74, 8-chloro-7-(5-(difluoromethyl)pyridin-2-yl)-1,3-dihydro-2H-imidazo[4,5-b]quinolin-2-one], 0.7 nM; with `N#Cc1ccc(-c2ccc3nc4[nH]c(=O)[nH]c4cc3c2Cl)cc1` [Example 75, 8-chloro-7-(4-cyanophenyl)-1,3-dihydro-2H-imidazo[4,5-b]quinolin-2-one], 0.5 nM.
